Converted amounts (≈) assume the structure as drawn. Like-named read-outs stand apart in the source and are kept apart here.
Legend:
[1] = target: interaction between GST-MAGEA11 MHD and FAM-PCF11_4 peptide (MAGE-A11:PCF11) (Homo sapiens (Human), UniProt P43364); test: TR-FRET dose response competition assay for disruption of MAGE-A11:PCF11 binding
Procedure, shortened: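 Competition TR-FRET at room temperature in 50 mM Tris pH 7.5, 20 mM MgCl2, 0.1 mg/ml BSA, 1 mM DTT: final 5 nM GST-MAGEA11 MHD, 5 nM Tb-anti-GST, 200 nM FAM-PCF11_4, 90 min. Ratio 520/490 nm converted to % inhibition; IC50 from sigmoidal fit.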

[2] = Solubility assay (μSOL Evolution, UV); format: physicochemical; details: 18 h at RT in buffer; for solubility at 18 h: aqueous buffer, kinetic from dmso stock
Method: Solubility assays were carried out on a Biomek FX lab automation workstation (Beckman Coulter, Inc., Fullerton, CA) using SOL Evolution software (pION Inc., Woburn, MA). The detailed method is described as follows. 10 μl of 10 mM compound stock (in DMSO) was added to 190 μl 1-propanol to make a reference stock plate. 5 μl from this reference stock plate were mixed with 70 μl 1-propanol and 75 μl citrate phosphate-buffered saline (PBS; isotonic) to make the reference plate, and the UV spectrum (250-500 nm) of the reference plate was read. 6 μl of 10 mM test compound stock was added to 594 μl buffer in a 96-well storage plate and mixed. The storage plate was sealed and incubated at RT for 18 h. The suspension was then filtered through a 96-well filter plate (pION Inc., Woburn, MA). 75 μl of filtrate was mixed with 75 μl 1-propanol to make the sample plate, and the UV spectrum of the sample plate was read. Calculations were carried out with μSOL Evolution software based on the area under the curve (AUC) of the UV spectrum of the sample and reference plates. All compounds were tested in triplicate.

[3] = High throughput Caco-2 permeability; format: in vitro ADME; details: human, 10 μmol/l, 2 h, 37° C.
Method: (§1) High throughput Caco-2 permeability was performed in the TranswellR 0.4 μm polycarbonate membrane 96-well system with modified methods. Caco-2 cells were maintained at 37° C. in a humidified incubator with an atmosphere of 5% CO2. The cells were cultured in 75 cm^2 flasks with Dulbecco's Modified Eagle's Medium (DMEM) containing 10% (v/v) FBS, 1% (v/v) non-essential amino acids (NEAA), 100 units/ml of penicillin, and 100 μg/ml of streptomycin. The Caco-2 cells were seeded onto inserts at a density of 2×10^4 cells/insert separately. The medium in the wells was exchanged each other day, and the trans epithelial electrical resistance (TEER) value was measured using an epithelial voltohm meter (Millipore, Billerica, Massachusetts). […] For transport experiments, each cultured monolayer on the 96-well plate was washed twice with a transport buffer (HBSS containing 25 mM HEPES, pH 7.4). The permeability assay was initiated by the addition of each compound solution (10 μmol/l) into inserts (apical side, A) or receivers (basolateral side, B). The Caco-2 cell monolayers were incubated for 2 h at 37° C. Fractions were collected from receivers (if apical to basal permeability) or inserts (if basal to apical permeability), and concentrations were assessed by UPLC/MS (Waters; Milford, MA). All compounds were tested in triplicates. The A→B (or B→A) apparent permeability coefficients (Papp) of each compound were calculated using the equation, Papp=dQ/dt×1/AC0, where dQ/dt equals the flux of a drug across the monolayer, A equals the total insert well surface area, and C0 is the initial concentration of substrate in the donor compartment. The efflux ratio was determined by dividing the Papp in the B-A direction by the Papp in the A-B direction.

Caco-2 cell monolayers = test: High throughput Caco-2 permeability; format: in vitro ADME
Method: as §1

[4] = Caco-2, pH 7.4, apical to basolateral, read-out: Caco-2 permeability, A/B
[5] = Caco-2, pH 7.4, basolateral to apical, read-out: Caco-2 permeability, B/A
[6] = Table 6, 4-aminoquinoline compounds, read-out: TR-FRET, IC50

interaction between GST-MAGEA11 MHD and FAM-PCF11_4 peptide (MAGE-A11:PCF11), sequence (P43364 218-429): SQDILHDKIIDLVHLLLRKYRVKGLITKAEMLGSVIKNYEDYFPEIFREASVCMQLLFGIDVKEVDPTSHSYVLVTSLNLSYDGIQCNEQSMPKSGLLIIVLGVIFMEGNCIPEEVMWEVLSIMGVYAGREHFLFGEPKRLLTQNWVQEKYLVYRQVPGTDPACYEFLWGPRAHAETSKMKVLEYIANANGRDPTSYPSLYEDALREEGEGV

SMILES | IC50 ([1]; read-out: IC50 by TR-FRET for disrupting MAGE-A11:PCF11 interaction) [nM] | Solubility [2] [µM] | Papp at 2 h, 10 μmol/l [3, 4] [×10⁻⁶ cm/s] | Papp at 2 h, 10 μmol/l [3, 5] [×10⁻⁶ cm/s] | cell permeability (Caco-2 cell monolayers) | IC50 [1, 6] [nM] | solubility at 18 h [2] [µM]
c1ccc2c(NCCCNCc3ccc4[nH]ccc4c3)ccnc2c1 [SJ001008066-01, N^1-((1H-Indol-5-yl)methyl)-N^3-(quinolin-4-yl)propane-1,3-diamine] | 130 | 37.77 (≈ 12.5 µg/mL) | 8.17 | 8.09 | cell permeable |  | 
FC(F)(F)c1cc(-c2ccc3c(NCCCNCc4ccc5[nH]ccc5c4)ccnc3c2)cc(C(F)(F)F)c1 [SJ001008069-01, N^1_((1H-Indol-5-yl)methyl)-N^3-(7-(3,5-bis(trifluoromethyl)phenyl)quinolin-4-yl)propane-1,3-diamine] |  |  | 0.498 | 0.229 |  | 200 | 0.12 (≈ 0.0651 µg/mL)
C=CC(=O)N(CCCNc1ccnc2ccccc12)Cc1ccc2[nH]ccc2c1 [SJ001009807-01, N-((1H-Indol-5-yl)methyl)-N-(3-(quinolin-4-ylamino)propyl)acrylamide] |  |  | 2.73 | 18.9 |  | 3500 | 34.8 (≈ 13.4 µg/mL)
